Laboratory results from PubChem BioAssay (NCI).
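Method: 48-hour compound exposure of cells in 96-well plates, five concentrations, linear interpolation of endpoints. GI50 is the concentration that inhibits growth by half. TGI is the concentration that stops growth completely.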

Legend:
Experiment in all cases: DTP human tumour cell line panel, 48 h
SN12C renal = test system: SN12C renal
NCI-H522 lung = test system: NCI-H522 lung
MOLT-4 leukemia = test system: MOLT-4 leukemia
UACC-62 melanoma = test system: UACC-62 melanoma
T-47D breast = test system: T-47D breast
HOP-92 NSCLC = test system: HOP-92 NSCLC
786-0 renal = test system: 786-0 renal
EKVX NSCLC = test system: EKVX NSCLC
OVCAR-5 ovarian = test system: OVCAR-5 ovarian
U251 CNS = test system: U251 CNS
SR leukemia = test system: SR leukemia
CCRF-CEM leukemia = test system: CCRF-CEM leukemia
OVCAR-8 ovarian = test system: OVCAR-8 ovarian
OVCAR-3 ovarian = test system: OVCAR-3 ovarian
SF-539 CNS = test system: SF-539 CNS
HCT-15 colon = test system: HCT-15 colon
MCF7 breast = test system: MCF7 breast
NCI-H23 lung = test system: NCI-H23 lung
A549 NSCLC = test system: A549 NSCLC
MDA-MB-231 breast = test system: MDA-MB-231 breast
ACHN renal = test system: ACHN renal
HT29 colon = test system: HT29 colon
DU-145 prostate = test system: DU-145 prostate
BT-549 breast = test system: BT-549 breast
HCT-116 colon = test system: HCT-116 colon
HCC-2998 colon = test system: HCC-2998 colon
SNB-75 CNS = test system: SNB-75 CNS
LOX IMVI melanoma = test system: LOX IMVI melanoma
NCI/ADR-RES ovarian = test system: NCI/ADR-RES ovarian
HL-60(TB) leukemia = test system: HL-60(TB) leukemia
SF-268 CNS = test system: SF-268 CNS
HS 578T breast = test system: HS 578T breast
HOP-62 NSCLC = test system: HOP-62 NSCLC
UACC-257 melanoma = test system: UACC-257 melanoma
IGROV1 ovarian = test system: IGROV1 ovarian
OVCAR-4 ovarian = test system: OVCAR-4 ovarian
M14 melanoma = test system: M14 melanoma
NCI-H226 lung = test system: NCI-H226 lung
SK-MEL-5 melanoma = test system: SK-MEL-5 melanoma
SK-OV-3 ovarian = test system: SK-OV-3 ovarian
NCI-H460 lung = test system: NCI-H460 lung
TK-10 renal = test system: TK-10 renal
SW-620 colon = test system: SW-620 colon
KM12 colon = test system: KM12 colon
MDA-MB-435 = test system: MDA-MB-435
SK-MEL-2 melanoma = test system: SK-MEL-2 melanoma
COLO 205 colon = test system: COLO 205 colon
RXF 393 renal = test system: RXF 393 renal
SNB-19 CNS = test system: SNB-19 CNS
SF-295 CNS = test system: SF-295 CNS
SK-MEL-28 melanoma = test system: SK-MEL-28 melanoma
CAKI-1 renal = test system: CAKI-1 renal
PC-3 prostate = test system: PC-3 prostate
UO-31 renal = test system: UO-31 renal
MALME-3M melanoma = test system: MALME-3M melanoma
K-562 leukemia = test system: K-562 leukemia
RPMI-8226 leukemia = test system: RPMI-8226 leukemia
A498 renal = test system: A498 renal

Compound: Cc1ncc(C(=O)Nc2ccc(CN3CCN(C)CC3)c(C(F)(F)F)c2)cc1C#Cc1ccc(N)nc1
- GI50 (SN12C renal): 135 nM
- TGI (SN12C renal): 2250 nM
- GI50 (NCI-H522 lung): 192 nM
- TGI (NCI-H522 lung): 1750 nM
- GI50 (MOLT-4 leukemia): 155 nM
- TGI (MOLT-4 leukemia): 7520 nM
- GI50 (UACC-62 melanoma): 153 nM
- TGI (UACC-62 melanoma): 854 nM
- GI50 (T-47D breast): 1080 nM
- TGI (T-47D breast): 7200 nM
- GI50 (HOP-92 NSCLC): 116 nM
- TGI (HOP-92 NSCLC): 935 nM
- GI50 (786-0 renal): 733 nM
- TGI (786-0 renal): 4300 nM
- GI50 (EKVX NSCLC): 504 nM
- TGI (EKVX NSCLC): 3850 nM
- GI50 (OVCAR-5 ovarian): 412 nM
- TGI (OVCAR-5 ovarian): 5300 nM
- GI50 (U251 CNS): 483 nM
- TGI (U251 CNS): 4950 nM
- GI50 (SR leukemia): 189 nM
- TGI (SR leukemia): 4400 nM
- GI50 (CCRF-CEM leukemia): 598 nM
- TGI (CCRF-CEM leukemia): 12300 nM
- GI50 (OVCAR-8 ovarian): 489 nM
- TGI (OVCAR-8 ovarian): 5030 nM
- GI50 (OVCAR-3 ovarian): 556 nM
- TGI (OVCAR-3 ovarian): 4160 nM
- GI50 (SF-539 CNS): 367 nM
- TGI (SF-539 CNS): 1100 nM
- GI50 (HCT-15 colon): 224 nM
- TGI (HCT-15 colon): 3700 nM
- GI50 (MCF7 breast): 903 nM
- TGI (MCF7 breast): 4890 nM
- GI50 (NCI-H23 lung): 600 nM
- TGI (NCI-H23 lung): 4130 nM
- GI50 (A549 NSCLC): 531 nM
- TGI (A549 NSCLC): 4410 nM
- GI50 (MDA-MB-231 breast): 158 nM
- TGI (MDA-MB-231 breast): 711 nM
- GI50 (ACHN renal): 117 nM
- TGI (ACHN renal): 995 nM
- GI50 (HT29 colon): 129 nM
- TGI (HT29 colon): 1160 nM
- GI50 (DU-145 prostate): 186 nM
- TGI (DU-145 prostate): 4120 nM
- GI50 (BT-549 breast): 1200 nM
- TGI (BT-549 breast): 4090 nM
- GI50 (HCT-116 colon): 213 nM
- TGI (HCT-116 colon): 1640 nM
- GI50 (HCC-2998 colon): 998 nM
- TGI (HCC-2998 colon): 4660 nM
- GI50 (SNB-75 CNS): 434 nM
- TGI (SNB-75 CNS): 1100 nM
- GI50 (LOX IMVI melanoma): 131 nM
- TGI (LOX IMVI melanoma): 496 nM
- GI50 (NCI/ADR-RES ovarian): 1030 nM
- TGI (NCI/ADR-RES ovarian): 5640 nM
- GI50 (HL-60(TB) leukemia): 290 nM
- TGI (HL-60(TB) leukemia): 1910 nM
- GI50 (SF-268 CNS): 258 nM
- TGI (SF-268 CNS): 1430 nM
- GI50 (HS 578T breast): 170 nM
- TGI (HS 578T breast): 988 nM
- GI50 (HOP-62 NSCLC): 426 nM
- TGI (HOP-62 NSCLC): 2600 nM
- GI50 (UACC-257 melanoma): 582 nM
- TGI (UACC-257 melanoma): 3250 nM
- GI50 (IGROV1 ovarian): 118 nM
- TGI (IGROV1 ovarian): 751 nM
- GI50 (OVCAR-4 ovarian): 122 nM
- TGI (OVCAR-4 ovarian): 3740 nM
- GI50 (M14 melanoma): 126 nM
- TGI (M14 melanoma): 797 nM
- GI50 (NCI-H226 lung): 206 nM
- TGI (NCI-H226 lung): 1660 nM
- GI50 (SK-MEL-5 melanoma): 532 nM
- TGI (SK-MEL-5 melanoma): 1000 nM
- GI50 (SK-OV-3 ovarian): 395 nM
- TGI (SK-OV-3 ovarian): 2560 nM
- GI50 (NCI-H460 lung): 190 nM
- TGI (NCI-H460 lung): 1840 nM
- GI50 (TK-10 renal): 654 nM
- TGI (TK-10 renal): 4390 nM
- GI50 (SW-620 colon): 244 nM
- TGI (SW-620 colon): 1360 nM
- GI50 (KM12 colon): 13.5 nM
- TGI (KM12 colon): 1210 nM
- GI50 (MDA-MB-435): 155 nM
- TGI (MDA-MB-435): 789 nM
- GI50 (SK-MEL-2 melanoma): 212 nM
- TGI (SK-MEL-2 melanoma): 816 nM
- GI50 (COLO 205 colon): 239 nM
- TGI (COLO 205 colon): 4550 nM
- GI50 (RXF 393 renal): 197 nM
- TGI (RXF 393 renal): 892 nM
- GI50 (SNB-19 CNS): 1220 nM
- TGI (SNB-19 CNS): 5060 nM
- GI50 (SF-295 CNS): 908 nM
- TGI (SF-295 CNS): 4070 nM
- GI50 (SK-MEL-28 melanoma): 251 nM
- TGI (SK-MEL-28 melanoma): 1300 nM
- GI50 (CAKI-1 renal): 104 nM
- TGI (CAKI-1 renal): 533 nM
- GI50 (PC-3 prostate): 720 nM
- TGI (PC-3 prostate): 5890 nM
- GI50 (UO-31 renal): 161 nM
- TGI (UO-31 renal): 793 nM
- GI50 (MALME-3M melanoma): 86.8 nM
- TGI (MALME-3M melanoma): 379 nM
- GI50 (K-562 leukemia): 3.33 nM
- TGI (K-562 leukemia): 24500 nM
- GI50 (RPMI-8226 leukemia): 237 nM
- TGI (RPMI-8226 leukemia): 1580 nM
- GI50 (A498 renal): 89.8 nM
- TGI (A498 renal): 294 nM
